Measurements from patent US10898475B2, “Bach1 inhibitors in combination with Nrf2 activators and pharmaceutical compositions thereof” (vTv Therapeutics LLC, priority 2014, dated 2021).

System: HMOX1 in Normal Human Lung Fibroblasts (NHLF)
Experiment: HMOX1 Protein Expression (immunostaining, fold induction or % positive cells over DMSO)
Conditions: for Hill slope of DMF dose response curves in Table 2: % Positive HMOX

- Fold Induction of HMOX (Cpd. 0.019 uM, DMF 0 uM): 2.08 fold
- Fold Induction of HMOX (Cpd. 0.019 uM, DMF 0.03 uM): 1.31 fold
- Fold Induction of HMOX (Cpd. 0.019 uM, DMF 0.1 uM): 1.23 fold
- Fold Induction of HMOX (Cpd. 0.019 uM, DMF 0.3 uM): 1.44 fold
- Fold Induction of HMOX (Cpd. 0.019 uM, DMF 1 uM): 2.17 fold
- Fold Induction of HMOX (Cpd. 0.019 uM, DMF 3 uM): 3.55 fold
- Fold Induction of HMOX (Cpd. 0.019 uM, DMF 10 uM): 5.12 fold
- Fold Induction of HMOX (Cpd. 0.019 uM, DMF 30 uM): 4.90 fold
- Fold Induction of HMOX (Cpd. 0.039 uM, DMF 0 uM): 2.51 fold
- Fold Induction of HMOX (Cpd. 0.039 uM, DMF 0.03 uM): 1.81 fold
- Fold Induction of HMOX (Cpd. 0.039 uM, DMF 0.1 uM): 1.52 fold
- Fold Induction of HMOX (Cpd. 0.039 uM, DMF 0.3 uM): 1.81 fold
- Fold Induction of HMOX (Cpd. 0.039 uM, DMF 1 uM): 2.60 fold
- Fold Induction of HMOX (Cpd. 0.039 uM, DMF 3 uM): 4.00 fold
- Fold Induction of HMOX (Cpd. 0.039 uM, DMF 10 uM): 5.64 fold
- Fold Induction of HMOX (Cpd. 0.039 uM, DMF 30 uM): 5.52 fold
- Fold Induction of HMOX (Cpd. 0.078 uM, DMF 0 uM): 4.34 fold
- Fold Induction of HMOX (Cpd. 0.078 uM, DMF 0.03 uM): 2.35 fold
- Fold Induction of HMOX (Cpd. 0.078 uM, DMF 0.1 uM): 2.87 fold
- Fold Induction of HMOX (Cpd. 0.078 uM, DMF 0.3 uM): 3.21 fold
- Fold Induction of HMOX (Cpd. 0.078 uM, DMF 1 uM): 3.83 fold
- Fold Induction of HMOX (Cpd. 0.078 uM, DMF 3 uM): 4.20 fold
- Fold Induction of HMOX (Cpd. 0.078 uM, DMF 10 uM): 6.52 fold
- Fold Induction of HMOX (Cpd. 0.078 uM, DMF 30 uM): 4.80 fold
- Fold Induction of HMOX (Cpd. 0.156 uM, DMF 0 uM): 6.46 fold
- Fold Induction of HMOX (Cpd. 0.156 uM, DMF 0.03 uM): 5.22 fold
- Fold Induction of HMOX (Cpd. 0.156 uM, DMF 0.1 uM): 4.89 fold
- Fold Induction of HMOX (Cpd. 0.156 uM, DMF 0.3 uM): 5.17 fold
- Fold Induction of HMOX (Cpd. 0.156 uM, DMF 1 uM): 6.04 fold
- Fold Induction of HMOX (Cpd. 0.156 uM, DMF 3 uM): 7.69 fold
- Fold Induction of HMOX (Cpd. 0.156 uM, DMF 10 uM): 7.50 fold
- Fold Induction of HMOX (Cpd. 0.156 uM, DMF 30 uM): 6.18 fold
Compound: Cn1c(Nc2nc3ccc(C(F)(F)F)cc3s2)nc2cc(C(=O)NCCOCCO)ccc21 [HPP-D, 1-Methyl-2-(6-trifluoromethyl-benzothiazol-2-ylamino)-1H-benzoimidazole-5-carboxylic acid [2-(2-hydroxy-ethoxy)-ethyl]-amide]
- Hill slope of DMF dose response curves in Table 2 (Bach1 Inhibitor Conc. 0.019 uM): 2.23
- Hill slope of DMF dose response curves in Table 2 (Bach1 Inhibitor Conc. 0.039 uM): 1.69
- Hill slope of DMF dose response curves in Table 2 (Bach1 Inhibitor Conc. 0.078 uM): 0.90
- Hill slope of DMF dose response curves in Table 2 (Bach1 Inhibitor Conc. 0.156 uM): 0.23
- % Cells Positive HMOX (Cpd. 0.019 uM, DMF 0 uM): 19.42%
- % Cells Positive HMOX (Cpd. 0.019 uM, DMF 0.03 uM): 4.94%
- % Cells Positive HMOX (Cpd. 0.019 uM, DMF 0.1 uM): 4.52%
- % Cells Positive HMOX (Cpd. 0.019 uM, DMF 0.3 uM): 7.63%
- % Cells Positive HMOX (Cpd. 0.019 uM, DMF 1 uM): 26.41%
- % Cells Positive HMOX (Cpd. 0.019 uM, DMF 3 uM): 80.18%
- % Cells Positive HMOX (Cpd. 0.019 uM, DMF 10 uM): 96.12%
- % Cells Positive HMOX (Cpd. 0.019 uM, DMF 30 uM): 84.02%
- % Cells Positive HMOX (Cpd. 0.039 uM, DMF 0 uM): 28.04%
- % Cells Positive HMOX (Cpd. 0.039 uM, DMF 0.03 uM): 11.95%
- % Cells Positive HMOX (Cpd. 0.039 uM, DMF 0.1 uM): 6.75%
- % Cells Positive HMOX (Cpd. 0.039 uM, DMF 0.3 uM): 18.66%
- % Cells Positive HMOX (Cpd. 0.039 uM, DMF 1 uM): 38.70%
- % Cells Positive HMOX (Cpd. 0.039 uM, DMF 3 uM): 78.65%
- % Cells Positive HMOX (Cpd. 0.039 uM, DMF 10 uM): 99.17%
- % Cells Positive HMOX (Cpd. 0.039 uM, DMF 30 uM): 91.91%
- % Cells Positive HMOX (Cpd. 0.078 uM, DMF 0 uM): 73.95%
- % Cells Positive HMOX (Cpd. 0.078 uM, DMF 0.03 uM): 33.51%
- % Cells Positive HMOX (Cpd. 0.078 uM, DMF 0.1 uM): 44.61%
- % Cells Positive HMOX (Cpd. 0.078 uM, DMF 0.3 uM): 61.50%
- % Cells Positive HMOX (Cpd. 0.078 uM, DMF 1 uM): 84.85%
- % Cells Positive HMOX (Cpd. 0.078 uM, DMF 3 uM): 90.28%
- % Cells Positive HMOX (Cpd. 0.078 uM, DMF 10 uM): 97.73%
- % Cells Positive HMOX (Cpd. 0.078 uM, DMF 30 uM): 91.28%
- % Cells Positive HMOX (Cpd. 0.156 uM, DMF 0 uM): 96.31%
- % Cells Positive HMOX (Cpd. 0.156 uM, DMF 0.03 uM): 92.53%
- % Cells Positive HMOX (Cpd. 0.156 uM, DMF 0.1 uM): 88.16%
- % Cells Positive HMOX (Cpd. 0.156 uM, DMF 0.3 uM): 94.48%
- % Cells Positive HMOX (Cpd. 0.156 uM, DMF 1 uM): 97.74%
- % Cells Positive HMOX (Cpd. 0.156 uM, DMF 3 uM): 99.20%
- % Cells Positive HMOX (Cpd. 0.156 uM, DMF 10 uM): 100.00%
- % Cells Positive HMOX (Cpd. 0.156 uM, DMF 30 uM): 92.22%
- combination effect in terms of the % HMOX positive cells (combination with DMF at concentrations below their maximum effect (Table 2)): additive or greater than additive
- change of Hill slope of the DMF dose response curve (FIG. 5) (upon increasing amounts of the Bach1 Inhibitor): reduced
